From PubChem BioAssay (NCI)
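Each compound was tested at five concentrations against cells in 96-well plates for 48 hours. Abbreviation: GI50, concentration required for 50% inhibition of growth. TGI: total growth inhibition.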

Assays:
Assay in all cases: NCI tumour cell line growth inhibition, 48 h
NCI-H23 lung = test system: NCI-H23 lung
NCI-H460 lung = test system: NCI-H460 lung
NCI-H522 lung = test system: NCI-H522 lung
NCI/ADR-RES ovarian = test system: NCI/ADR-RES ovarian
OVCAR-3 ovarian = test system: OVCAR-3 ovarian
OVCAR-4 ovarian = test system: OVCAR-4 ovarian
OVCAR-5 ovarian = test system: OVCAR-5 ovarian
OVCAR-8 ovarian = test system: OVCAR-8 ovarian
PC-3 prostate = test system: PC-3 prostate
RXF 393 renal = test system: RXF 393 renal
SF-268 CNS = test system: SF-268 CNS
SF-295 CNS = test system: SF-295 CNS
SF-539 CNS = test system: SF-539 CNS
SK-MEL-2 melanoma = test system: SK-MEL-2 melanoma
SK-MEL-28 melanoma = test system: SK-MEL-28 melanoma
SK-MEL-5 melanoma = test system: SK-MEL-5 melanoma
SK-OV-3 ovarian = test system: SK-OV-3 ovarian
SN12C renal = test system: SN12C renal
SNB-19 CNS = test system: SNB-19 CNS
SNB-75 CNS = test system: SNB-75 CNS
SR leukemia = test system: SR leukemia
SW-620 colon = test system: SW-620 colon
T-47D breast = test system: T-47D breast
TK-10 renal = test system: TK-10 renal
U251 CNS = test system: U251 CNS
UACC-257 melanoma = test system: UACC-257 melanoma
UACC-62 melanoma = test system: UACC-62 melanoma
UO-31 renal = test system: UO-31 renal

Clc1ccc(CN2COc3c(ccc4cccnc34)C2)cc1Cl
GI50 (NCI-H23 lung): 2560 nM
TGI (NCI-H23 lung): 14900 nM
GI50 (NCI-H460 lung): 532 nM
TGI (NCI-H460 lung): 2520 nM
GI50 (NCI-H522 lung): 1100 nM
TGI (NCI-H522 lung): 2610 nM
GI50 (NCI/ADR-RES ovarian): 394 nM
TGI (NCI/ADR-RES ovarian): 2150 nM
GI50 (OVCAR-3 ovarian): 468 nM
TGI (OVCAR-3 ovarian): 12100 nM
GI50 (OVCAR-4 ovarian): 531 nM
TGI (OVCAR-4 ovarian): 12900 nM
GI50 (OVCAR-5 ovarian): 1790 nM
TGI (OVCAR-5 ovarian): 15200 nM
GI50 (OVCAR-8 ovarian): 730 nM
TGI (OVCAR-8 ovarian): 10200 nM
GI50 (PC-3 prostate): 798 nM
TGI (PC-3 prostate): 11500 nM
GI50 (RXF 393 renal): 1050 nM
TGI (RXF 393 renal): 4100 nM
GI50 (SF-268 CNS): 1320 nM
TGI (SF-268 CNS): 12100 nM
GI50 (SF-295 CNS): 2350 nM
TGI (SF-295 CNS): 12600 nM
GI50 (SF-539 CNS): 1280 nM
TGI (SF-539 CNS): 3720 nM
GI50 (SK-MEL-2 melanoma): 2150 nM
TGI (SK-MEL-2 melanoma): 7470 nM
GI50 (SK-MEL-28 melanoma): 1470 nM
TGI (SK-MEL-28 melanoma): 14200 nM
GI50 (SK-MEL-5 melanoma): 971 nM
TGI (SK-MEL-5 melanoma): 2900 nM
GI50 (SK-OV-3 ovarian): 1340 nM
TGI (SK-OV-3 ovarian): 13100 nM
GI50 (SN12C renal): 2040 nM
TGI (SN12C renal): 13800 nM
GI50 (SNB-19 CNS): 1980 nM
TGI (SNB-19 CNS): 14300 nM
GI50 (SNB-75 CNS): 2360 nM
TGI (SNB-75 CNS): 13400 nM
GI50 (SR leukemia): 354 nM
TGI (SR leukemia): 1410 nM
GI50 (SW-620 colon): 1280 nM
TGI (SW-620 colon): 5390 nM
GI50 (T-47D breast): 1680 nM
TGI (T-47D breast): 11300 nM
GI50 (TK-10 renal): 3350 nM
TGI (TK-10 renal): 17900 nM
GI50 (U251 CNS): 966 nM
TGI (U251 CNS): 13200 nM
GI50 (UACC-257 melanoma): 2530 nM
TGI (UACC-257 melanoma): 7890 nM
GI50 (UACC-62 melanoma): 584 nM
TGI (UACC-62 melanoma): 2410 nM
GI50 (UO-31 renal): 400 nM
TGI (UO-31 renal): 10500 nM
